Patent publication US20220365099A1, “DERIVATIZATION OF BETA-LACTAM ANTIBIOTICS FOR MASSSPEC MEASUREMENTS IN PATIENT SAMPLES” (Roche Diagnostics Operations, Inc., priority 2019, published 2022)

Test: Stability in water at room temperature, LC-MS/MS peak areas over 16 h
Type: physicochemical
Settings: 5 μg/ml in water, timepoints 0, 2, 4, 6, 8 and 16 h
Method: The stability of native Piperacillin as well as its hydrolyzed forms was investigated (compounds 5, 9a and 9b, respectively. From the hydrolyzation pathway of Piperacillin (see schematic drawing in FIG. 1) it is obvious that this compound hydrolyzed both on the piperazin ring and the lactam moiety, only one of both compounds is monitored to account for the loss of native Piperacillin). To this end, these compounds were freshly weighed and dissolved in water at a concentration of 1 mg/mL by rolling for 15 minutes at room temperature. Subsequently, these compounds were diluted to 5 μg/ml and measured with a suitable LC-MS/MS method at timepoints 0, 2, 4, 6, 8 and 16 h. […] The peaks were integrated using MultiQuant software and the areas of these peaks depicted in the graphs in FIGS. 2A and 2B.
The stability of double butylamide variants of Piperacillin (compound 7, see FIG. 4) was investigated at 2 MRMs using the identical protocol as in Examples 1.

Structure (SMILES): CCN1CCN(C(=O)N[C@@H](C(=O)N[C@@H]2C(=O)N3[C@@H]2SC(C)(C)[C@@H]3C(=O)O)c2ccccc2)C(=O)C1=O [Piperacillin]
- obtained peak-areas over time: decreasing
